Structures can show the parent of a compound that is named as a salt. Where two headings read alike, the source gives them in different places.
Experiments:
[1] = in vivo, metabolite of fasudil; cited from earlier work
humans (AD) = settings: cited from earlier work
[2] = system: patients with Alzheimer's Dementia (AD) and frontotemporal dementia (FTD); assay: clinical trial of oral fasudil on frequency of wandering (Example 1); format: in vivo, human
Source text: Twenty patients, 10 with AD and 10 with FTD and an MMSE score ≤23, who are characterized wanderers, are enrolled into the study and observed for 2 weeks to confirm wandering behavior. […] The double-blind phase is followed by another treatment period of 6 weeks with the opposite treatment assignment (placebo or test drug taken with food).
The following inclusion criteria are applied:
1. Patients 50 years to 90 years of age.
2. Diagnosis of dementia (AD or VaD or mixed type) for at least 6 months.
3. For entering observation period and for entering open label treatment period: Wanders:
• a. Walks distinctly more than average as others of same age and ability AND/OR • b. Elopement behavior ≥3×per week in the opinion of the investigator For entering first double-blind treatment period: Wanders: • a. Walks less than half the mean distance measured in observation period AND/OR • b. Elopement behavior <1× per week in the opinion of the investigator AND/OR • c. Wandering has improved in the opinion of the Investigator. 4. For entering observation period and for entering open label treatment period: • a. MMSE between 10 and 25.
Wandering is measured in term of time in motion and distance traveled (measures of persistent wandering), attempted and successful boundary transgressions (measures of elopement) and patterns like pacing a lapping (indicative of persistent wandering and/or agitation or anxiety) using an electronic tracking device. A typical tracking device would use a combination of accelerometry with positioning, using technology like RFID or Bluetooth in an indoor environment and GPS outdoors. Other wayfinding, orientation and memory-associated wandering incidents are observed and recorded manually.
Wandering is measured in term of time in motion and attempted successful boundary transgression using an electronic tracking device. Other wayfinding, orientation and memory-associated wandering incidents are observed and recorded manually.
The Mini Mental State Exam (MMSE), Woolsey Wandering Questionnaire and Revised Algase Wandering Scale are administered at baseline and at the end of each treatment period. Any change in the use of antipsychotics or anxiolytics that could affect movement during the study is strongly discouraged.

[3] = system: patients with wandering due to VaD; settings: cited from earlier work
[4] = system: triple transgenic mouse model (APP Swedish, MAPT P301L, and PSEN1 M146V); settings: 10 mg/kg/day intraperitoneally; cited from earlier work
APP/PS1 transgenic mice = settings: 5 and 10 mg/kg/day intraperitoneally; cited from earlier work
streptozotocin rats = settings: intraperitoneally; cited from earlier work
triple transgenic mice = settings: 10 or 12 months of age, administered in water at 30 mg/kg and 100 mg/kg; cited from earlier work
[5] = on drug as compared to placebo, 90 mg/day (30 mg TID)

O=S(=O)(c1cccc2c(O)nccc12)N1CCCNCC1 [M3]
half-life [1]: about 8 hours

O=c1ncn2nc(Sc3ccc(F)cc3F)ccc2c1-c1c(Cl)cccc1Cl [Neflamapimod]
primary endpoint of improving episodic memory (humans (AD); Phase 2): failed | tau in the cerebrospinal fluid (humans (AD); Phase 2): reducing tau | Aβ deposition (humans (AD); humans): no effect

O=S(=O)(c1cccc2cnccc12)N1CCCNCC1 [fasudil, Hexahydro-1-(5-isoquinolinesulfonyl)-1H-1,4-diazepine monohydrochloride hemihydrate]
wandering ([2]; 90 mg/day (30 mg TID) oral, 6 weeks, AD and FTD patients): significant reduction in wandering | mean increase in MMSE score, persistent wanderers [2, 5]: greater than 3 points | reduction of activity levels in persistent wanderers [2, 5]: about 50% | wayfinding errors and other problematic behaviors in sporadic wanderers ([2]; while on drug, 90 mg/day (30 mg TID)): significant reduction | wandering symptoms ([3]; patient with Binswanger-type cerebral infarction, within weeks of beginning treatment): wandering symptoms disappeared | wandering symptoms ([3]; patient with sequelae of cerebral bleeding and multiple lacunar infarctions): Wandering symptoms disappeared quickly | ß-amyloid plaques in vivo [4]: reduce ß-amyloid plaques | latency distance and quadrant time in the Morris water maze (APP/PS1 transgenic mice): improved | latency distance and quadrant time in the Morris water maze (streptozotocin rats): improved | spatial memory (triple transgenic mice): did not observe improvements
